PubChem BioAssay AID1918948 (Molecular Pharmacology Branch, DTP, NCI, 2023)
pIC50: −log10 of the molar value.

Tested on: K-562 leukemia growth, % test/control
Experiment: Anticancer human tumor K-562 cell line growth inhibition;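 for viability, T/C: 100% = DMSO vehicle wells and lower values mean fewer viable cells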
Conditions: spheroids with HUVEC and MSC; for pIC50: curve of first compound; for viability, T/C: stronger effect = lower value; active = viability on the fitted dose curve at most 10% of control; inactive = the rest
Method in brief: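 Complex spheroids of tumor cells with HUVEC and human MSCs, exposed to iadademstat combined with other agents. Each agent tested in half-log steps from near clinical Cmax (else 10 microM top), DMSO ≤0.25%.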

[1] = second compound 0.1 µM, first compound 0.000316 µM
[2] = second compound 0.1 µM, first compound 0.001 µM
[3] = second compound 0.1 µM, first compound 0.00316 µM
[4] = second compound 0.1 µM, first compound 0.01 µM
[5] = second compound 0.1 µM, first compound 0.0316 µM
[6] = second compound 0.1 µM, first compound 0.1 µM
[7] = second compound 0.316 µM, first compound 0.000316 µM
[8] = second compound 0.316 µM, first compound 0.001 µM
[9] = second compound 0.316 µM, first compound 0.00316 µM
[10] = second compound 0.316 µM, first compound 0.01 µM
[11] = second compound 0.316 µM, first compound 0.0316 µM
[12] = second compound 0.316 µM, first compound 0.1 µM
[13] = second compound 1 µM, first compound 0.000316 µM
[14] = second compound 1 µM, first compound 0.001 µM
[15] = second compound 1 µM, first compound 0.00316 µM
[16] = second compound 1 µM, first compound 0.01 µM
[17] = second compound 1 µM, first compound 0.0316 µM
[18] = second compound 1 µM, first compound 0.1 µM
[19] = second compound 3.16 µM, first compound 0.000316 µM
[20] = second compound 3.16 µM, first compound 0.001 µM
[21] = second compound 3.16 µM, first compound 0.00316 µM
[22] = second compound 3.16 µM, first compound 0.01 µM
[23] = second compound 3.16 µM, first compound 0.0316 µM
[24] = second compound 3.16 µM, first compound 0.1 µM
[25] = second compound 10 µM, first compound 0.000316 µM
[26] = second compound 10 µM, first compound 0.001 µM
[27] = second compound 10 µM, first compound 0.00316 µM
[28] = second compound 10 µM, first compound 0.01 µM
[29] = second compound 10 µM, first compound 0.0316 µM
[30] = second compound 10 µM, first compound 0.1 µM

CC(C)CC(NC(=O)C(Cc1ccccc1)NC(=O)c1cnccn1)B(O)O (stereo not given) + NC1CC1c1ccc(-c2cccc(O)c2)cc1
9.24: pIC50 (second compound 3.16 µM)
9.28: pIC50 (second compound 10 µM)
active: viability, T/C [2] 3.66% | viability, T/C [3] 0.7% | viability, T/C [4] 0.61% | viability, T/C [5] 0.46% | viability, T/C [6] 0.42% | viability, T/C [8] 3.12% | viability, T/C [9] 0.63% | viability, T/C [10] 0.53% | viability, T/C [11] 0.48% | viability, T/C [12] 0.47% | viability, T/C [14] 3.33% | viability, T/C [15] 0.63% | viability, T/C [16] 0.53% | viability, T/C [17] 0.39% | viability, T/C [18] 0.56% | viability, T/C [20] 2.37% | viability, T/C [21] 0.61% | viability, T/C [22] 0.46% | viability, T/C [23] 0.43% | viability, T/C [24] 0.44% | viability, T/C [26] 2.01% | viability, T/C [27] 0.5% | viability, T/C [28] 0.46% | viability, T/C [29] 0.43% | viability, T/C [30] 0.39%
inactive: viability, T/C [1] 103% | viability, T/C [7] 105% | viability, T/C [13] 109% | viability, T/C [19] 102% | viability, T/C [25] 87.7%
9.23: pIC50 (second compound 0.1 µM) | pIC50 (second compound 0.316 µM)
9.22: pIC50 (second compound 1 µM)

CC(C)CC(NC(=O)CNC(=O)c1cc(Cl)ccc1Cl)B1OC(=O)CC(CC(=O)O)(C(=O)O)O1 (stereo not given) + NC1CC1c1ccc(-c2cccc(O)c2)cc1
7.85: pIC50 (second compound 0.1 µM)
inactive: viability, T/C [1] 110% | viability, T/C [2] 105% | viability, T/C [3] 107% | viability, T/C [4] 66.6% | viability, T/C [5] 11.4% | viability, T/C [7] 107% | viability, T/C [8] 99.7% | viability, T/C [9] 102% | viability, T/C [10] 60% | viability, T/C [13] 103% | viability, T/C [14] 96.1% | viability, T/C [15] 102% | viability, T/C [16] 48.4% | viability, T/C [19] 101% | viability, T/C [20] 96.6% | viability, T/C [21] 101% | viability, T/C [22] 36.7% | viability, T/C [25] 95.5% | viability, T/C [26] 96.8% | viability, T/C [27] 97.2% | viability, T/C [28] 23.1%
8.11: pIC50 (second compound 3.16 µM)
8.18: pIC50 (second compound 10 µM)
active: viability, T/C [6] 2.83% | viability, T/C [11] 10.7% | viability, T/C [12] 2.8% | viability, T/C [17] 9.51% | viability, T/C [18] 2.55% | viability, T/C [23] 9.01% | viability, T/C [24] 2.3% | viability, T/C [29] 5.77% | viability, T/C [30] 1.88%
7.90: pIC50 (second compound 0.316 µM)
8.01: pIC50 (second compound 1 µM)

COc1cc(Nc2ncc3c(n2)-c2ccc(Cl)cc2C(c2c(F)cccc2OC)=NC3)ccc1C(=O)O + NC1CC1c1ccc(-c2cccc(O)c2)cc1
inactive: viability, T/C [3] 31.1% | viability, T/C [4] 35.4% | viability, T/C [5] 35.4% | viability, T/C [6] 27.7% | viability, T/C (second compound 0.1 µM, first compound 0.316 µM) 11.1% | viability, T/C [9] 22.8% | viability, T/C [10] 27.5% | viability, T/C [11] 27.8% | viability, T/C [12] 18.3% | viability, T/C (second compound 0.316 µM, first compound 0.316 µM) 8.22% | viability, T/C [15] 20.2% | viability, T/C [16] 24.4% | viability, T/C [17] 22.4% | viability, T/C [18] 13.9% | viability, T/C [21] 15.5% | viability, T/C [22] 21% | viability, T/C [23] 21.4% | viability, T/C [24] 14% | viability, T/C [27] 10% | viability, T/C [28] 16.6% | viability, T/C [29] 20.3% | viability, T/C [30] 11.9% | viability, T/C (second compound 10 µM, first compound 0.316 µM) 6.15% | viability, T/C (second compound 10 µM, first compound 1 µM) 3.42%
active: viability, T/C (second compound 0.1 µM, first compound 1 µM) 5.75% | viability, T/C (second compound 0.316 µM, first compound 1 µM) 4.56% | viability, T/C (second compound 1 µM, first compound 0.316 µM) 6.56% | viability, T/C (second compound 1 µM, first compound 1 µM) 4.05% | viability, T/C (second compound 3.16 µM, first compound 0.316 µM) 6.72% | viability, T/C (second compound 3.16 µM, first compound 1 µM) 4.65%
> 8.50: pIC50 (second compound 0.1 µM) | pIC50 (second compound 0.316 µM) | pIC50 (second compound 1 µM) | pIC50 (second compound 3.16 µM) | pIC50 (second compound 10 µM)

O=C(C=Cc1cccc(S(=O)(=O)Nc2ccccc2)c1)NO + NC1CC1c1ccc(-c2cccc(O)c2)cc1
6.85: pIC50 (second compound 10 µM)
6.64: pIC50 (second compound 0.316 µM)
6.62: pIC50 (second compound 0.1 µM)
inactive: viability, T/C (second compound 0.1 µM, first compound 0.00949 µM) 106% | viability, T/C (second compound 0.1 µM, first compound 0.03 µM) 103% | viability, T/C (second compound 0.1 µM, first compound 0.0949 µM) 102% | viability, T/C (second compound 0.1 µM, first compound 0.3 µM) 5.9% | viability, T/C (second compound 0.1 µM, first compound 0.949 µM) 2.2% | viability, T/C (second compound 0.1 µM, first compound 3 µM) 104% | viability, T/C (second compound 0.316 µM, first compound 0.00949 µM) 102% | viability, T/C (second compound 0.316 µM, first compound 0.03 µM) 105% | viability, T/C (second compound 0.316 µM, first compound 0.0949 µM) 96.9% | viability, T/C (second compound 0.316 µM, first compound 0.3 µM) 4.4% | viability, T/C (second compound 0.316 µM, first compound 0.949 µM) 1.16% | viability, T/C (second compound 0.316 µM, first compound 3 µM) 99.1% | viability, T/C (second compound 1 µM, first compound 0.00949 µM) 100% | viability, T/C (second compound 1 µM, first compound 0.03 µM) 102% | viability, T/C (second compound 1 µM, first compound 0.0949 µM) 95.6% | viability, T/C (second compound 1 µM, first compound 0.3 µM) 3.61% | viability, T/C (second compound 1 µM, first compound 0.949 µM) 0.8% | viability, T/C (second compound 1 µM, first compound 3 µM) 96.4% | viability, T/C (second compound 3.16 µM, first compound 0.00949 µM) 98.5% | viability, T/C (second compound 3.16 µM, first compound 0.03 µM) 101% | viability, T/C (second compound 3.16 µM, first compound 0.0949 µM) 89.8% | viability, T/C (second compound 3.16 µM, first compound 0.3 µM) 2.99% | viability, T/C (second compound 3.16 µM, first compound 0.949 µM) 1.26% | viability, T/C (second compound 3.16 µM, first compound 3 µM) 94.5% | viability, T/C (second compound 10 µM, first compound 0.00949 µM) 84.5% | viability, T/C (second compound 10 µM, first compound 0.03 µM) 82% | viability, T/C (second compound 10 µM, first compound 0.0949 µM) 59.1% | viability, T/C (second compound 10 µM, first compound 0.3 µM) 2.72% | viability, T/C (second compound 10 µM, first compound 0.949 µM) 0.89% | viability, T/C (second compound 10 µM, first compound 3 µM) 93.5%
6.67: pIC50 (second compound 3.16 µM)
6.66: pIC50 (second compound 1 µM)
